Where two headings read alike, the source gives them in different places.
Tests used:
Phaedon cochleariae = Phaedon cochleariae spray test; assay type: in vivo; conditions: after 7 days, Chinese cabbage leaf discs
Summary of the method: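 Larval kill read at day 7 as percent, where 100% means every larva dead and 0% none; larvae were placed on dried Brassica pekinensis leaf discs previously sprayed with the formulation (acetone/dimethylformamide solvent, alkylaryl polyglycol ether emulsifier, water).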

[1] = log P by HPLC on reversed-phase column (C 18), EEC Directive 79/831 Annex V.A8; assay type: physicochemical; conditions: 55° C.; for LOGP_HCOOH: log P (HCOOH); for chromatographic logP: reversed-phase HPLC column (C 18)
Description: Temperature: 55° C. […] Called log P (HCOOH) in the table. […] Called log P (neutral) in the table.

Spodoptera frugiperda = Spodoptera frugiperda spray test; assay type: in vivo; conditions: after 7 days, maize leaf discs; for pest or weed control at 100 g/ha / pest or weed control at 500 g/ha: Spodoptera frugiperda, foliar, 168 h, read-out: efficacy (caterpillars killed)
Summary of the method: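 Efficacy in % was scored at 7 days against armyworm caterpillars placed on dried, compound-sprayed Zea mays leaf discs. Compound was dissolved in acetone/dimethylformamide and diluted in water with 1000 ppm alkylaryl polyglycol ether. 100% means all caterpillars were killed.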

Ctenocephalides felis = Ctenocephalides felis oral test; assay type: in vivo; conditions: application rate 100 ppm in citrated cattle blood, after 2 days, adult cat fleas
Description: Ctenocephalides felis—Oral Test Solvent: dimethyl sulphoxide To produce a suitable active ingredient formulation, 10 mg of active ingredient are mixed with 0.5 ml of dimethyl sulphoxide. Dilution with citrated cattle blood gives the desired concentration. About 20 unfed adult cat fleas (Ctenocephalides felis) are placed into a chamber which is closed at the top and bottom with gauze. A metal cylinder whose bottom end is closed with parafilm is placed onto the chamber. The cylinder contains the blood/active ingredient formulation, which can be imbibed by the fleas through the parafilm membrane. After 2 days, the kill in % is determined. 100% means that all of the fleas have been killed; 0% means that none of the fleas have been killed.

[2] = acidic range pH 2.7, 0.1% aqueous formic acid and acetonitrile, reversed-phase column (C 18)
[3] = log P, neutral range, HPLC on reversed-phase column (C 18)
[4] = acidic range at pH 2.7, 0.1% aqueous formic acid and acetonitrile, HPLC on reversed-phase column (C 18)
[5] = log P (neutral), HPLC reversed-phase column (C 18)
[6] = pH 2.7, LC-MS acidic range, pH 2.7, 0.1% formic acid/acetonitrile, read-out: log P (acidic) / log P (HCOOH)
[7] = pH 7.8, LC-MS neutral range, pH 7.8, ammonium hydrogencarbonate/acetonitrile, read-out: log P (neutral)
[8] = Phaedon cochleariae, foliar, 168 h, application rate 500 g/ha, read-out: efficacy (beetle larvae killed)

| SMILES | LOGP_HCOOH [1, 2] | LOGP_NEUTRAL [1, 3] | LOGP_HCOOH [1, 4] | efficacy (beetle larvae killed) (Phaedon cochleariae; application rate 500 g/ha) [%] | efficacy (caterpillars killed) (Spodoptera frugiperda; application rate 500 g/ha) [%] | efficacy (beetle larvae killed) (Phaedon cochleariae; application rate 100 g/ha) [%] | efficacy (caterpillars killed) (Spodoptera frugiperda; application rate 100 g/ha) [%] | other results |
| --- | --- | --- | --- | --- | --- | --- | --- | --- |
| CC(NC(=O)c1cc(-c2ccc(C(F)(F)F)cc2)cc(NC(=O)C2CC2)n1)c1ccc(C(F)(F)F)cc1 (stereo not shown) [Example I-057] | 4.91 | 4.77 | – | 83 | 100 | – | – | – |
| O=C(NCC1CCCCC1)c1cc(-c2ccc(OC(F)(F)F)cc2)cc(NC(=O)C2CC2)n1 [Example I-167] | – | 4.89 | 5.11 | – | – | – | – | efficacy (kill in %) (Ctenocephalides felis): 90% |
| N#Cc1cc(F)c(CNC(=O)c2cc(-c3ccc(C(F)(F)F)cc3)cc(NC(=O)C3CC3)n2)c(F)c1 [Example I-068] | 4.00 | 3.87 | – | 100 | 100 | 100 | 100 | – |
| N#Cc1ccc(CNC(=O)c2cc(-c3cccc(OC(F)(F)F)c3)cc(NC(=O)C3CC3)n2)cc1 [Example I-208] | – | 3.71 | 3.81 | 100 | – | 100 | 100 | – |
| N#Cc1ccc(CNC(=O)c2cc(-c3ccc(OC(F)(F)F)cc3)cc(NC(=O)CC(F)(F)F)n2)cc1 [Example I-241] | 3.90 | – | – | 100 | 100 | – | 100 | LOGP_NEUTRAL [1, 5]: 3.96 |
| O=C(NCc1ccccn1)c1cc(-c2ccc(C(F)(F)F)cc2)cc(NC(=O)C2CC2)n1 [Example I-007] | 3.19 | 2.75 | – | 100 | 83 | – | – | – |
| CNC(=O)c1cc(-c2ccc(OC(F)(F)F)cc2)cc(NC(=O)C2CC2)n1 [Example I-127] | – | – | 3.02 | 100 | 100 | – | 83 | – |
| NC(=S)c1ccc(CNC(=O)c2cc(-c3ccc(OC(F)(F)F)cc3)cc(NC(=O)C3CC3)n2)cc1 [Example I-214] | – | 3.35 | 3.45 | – | 100 | 83 | 100 | – |
| N#Cc1ccc(ONC(=O)c2cc(-c3ccc(OC(F)(F)F)cc3)cc(NC(=O)C3CC3)n2)cc1 [Example I-239] | 3.72 | – | – | – | 83 | 83 | – | LOGP_NEUTRAL [1, 5]: 3.13 |
| O=C(NC1CCC(C(F)(F)F)CC1)c1cc(-c2ccc(OC(F)(F)F)cc2)cc(NC(=O)C2CC2)n1 (stereo not shown) [Example I-146] | – | 4.60 | 4.77 | 100 | 83 | – | – | – |
| C#CC1(NC(=O)c2cc(-c3ccc(OC(F)(F)F)cc3)cc(NC(=O)C3CC3)n2)CC1 [Example I-126] | – | – | 3.63 | 100 | 100 | – | 83 | – |
| N#Cc1ccc(CNC(=O)c2cc(-c3ccc(OC(F)(F)F)cc3)cc(NC(=O)C3CC3)n2)nc1 [Example I-106] | 3.42 | 3.33 | – | – | 100 | 100 | 80 | – |

Continued, in another order:

| LOGP_HCOOH [1, 2] | LOGP_NEUTRAL [1, 3] | LOGP_HCOOH [1, 4] | SMILES | efficacy (beetle larvae killed) (Phaedon cochleariae; application rate 500 g/ha) [%] | efficacy (caterpillars killed) (Spodoptera frugiperda; application rate 500 g/ha) [%] | efficacy (beetle larvae killed) (Phaedon cochleariae; application rate 100 g/ha) [%] | efficacy (caterpillars killed) (Spodoptera frugiperda; application rate 100 g/ha) [%] | other results |
| --- | --- | --- | --- | --- | --- | --- | --- | --- |
| – | – | 3.84 | CC(C)NC(=O)c1cc(-c2ccc(OC(F)(F)F)cc2)cc(NC(=O)C2CC2)n1 [Example I-129] | 100 | 100 | 100 | 100 | – |
| 4.78 | 4.60 | – | O=C(NCc1ccc(Cl)cc1F)c1cc(-c2ccc(OC(F)(F)F)cc2)cc(NC(=O)C2CC2)n1 [Example I-067] | 100 | 100 | – | 100 | – |
| – | 4.02 | 4.18 | N#Cc1c(F)cc(CNC(=O)c2cc(-c3ccc(OC(F)(F)F)cc3)cc(NC(=O)C3CC3)n2)cc1F [Example I-111] | 100 | 100 | 100 | 100 | – |
| 3.30 | 3.23 | – | CCNC(=O)c1cc(-c2ccc(C(F)(F)F)cc2)cc(NC(=O)C2CC2)n1 [Example I-016] | 83 | 100 | – | – | – |
| – | – | 4.17 | O=C(NC1(C(F)(F)F)CC1)c1cc(-c2ccc(OC(F)(F)F)cc2)cc(NC(=O)C2CC2)n1 [Example I-137] | 100 | 100 | 100 | 100 | – |
| 3.96 | – | – | CC(C)(CS(C)(=O)=O)NC(=O)c1cc(-c2ccc(C(F)(F)C(F)(F)F)c(F)c2)cc(NC(=O)C2CC2)n1 [Example I-253] | 100 | 100 | 100 | 100 | LOGP_NEUTRAL [1, 5]: 3.91 |
| – | 3.84 | 3.85 | CN(C(=O)C1CC1)c1cc(-c2ccc(OC(F)(F)F)cc2)cc(C(=O)NCc2ccc(C#N)cc2)n1 [Example I-215, N-(4-Cyanobenzyl)-6-[(cyclopropylcarbonyl)(methyl)amino]-4-[4-(trifluoromethoxy)phenyl]pyridine-2-carboxamide] | – | – | – | – | pest or weed control at 100 g/ha (Phaedon cochleariae; Phaedon cochleariae, foliar, 168 h, application rate 100 g/ha, read-out: efficacy (beetle larvae killed)): 100%; chromatographic logP [1, 6]: 3.85; chromatographic logP [1, 7]: 3.84; pest or weed control at 100 g/ha (Spodoptera frugiperda; application rate 100 g/ha): 100%; pest or weed control at 500 g/ha (Spodoptera frugiperda; application rate 500 g/ha): 83% |
| – | 2.99 | – | N#Cc1ccc(CNC(=O)c2cc(-c3ccc(C(F)(F)F)nc3)cc(NC(=O)C3CC3)n2)cc1 [Example I-123, N-(4-Cyanobenzyl)-6′-[(cyclopropylcarbonyl)amino]-6-(trifluoromethyl)-3,4′-bipyridine-2′-carboxamide] | – | – | – | – | pest or weed control at 500 g/ha (Phaedon cochleariae; [8]): 100%; chromatographic logP [1, 6]: 3.02; chromatographic logP ([1]; pH 2.7, log P (HCOOH), acidic range at pH 2.7, 0.1% aqueous formic acid and acetonitrile, HPLC on reversed-phase column (C 18), read-out: LOGP_HCOOH): 3.13; pest or weed control at 500 g/ha (Spodoptera frugiperda; application rate 500 g/ha): 100% |
| 4.28 | – | – | N#Cc1ccc(CNC(=O)c2cc(-c3cc(F)c(C(F)(F)C(F)(F)F)c(F)c3F)cc(NC(=O)C3CC3)n2)cc1 [Example I-274] | 100 | 100 | – | – | – |
| 4.14 | 3.99 | – | N#Cc1ccc(CNC(=O)c2cc(-c3ccc(C(F)(F)F)cc3)cc(NC(=O)C3CCC3)n2)cc1 [Example I-045] | 83 | 100 | 100 | – | – |
| 4.45 | – | – | Cc1cc(-c2cc(NC(=O)C3CC3)nc(C(=O)NCc3ccc(C#N)cc3)c2)ccc1C(F)(F)C(F)(F)F [Example I-270] | 100 | 100 | – | – | – |
| – | – | 4.33 | CC1(C(=O)Nc2cc(-c3ccc(OC(F)(F)F)cc3)cc(C(=O)NCc3ccc(C#N)cc3)n2)CC1 [Example I-147] | 100 | 100 | 100 | 100 | – |
| – | 3.23 | 3.33 | Cn1ncc2cc(CNC(=O)c3cc(-c4ccc(OC(F)(F)F)cc4)cc(NC(=O)C4CC4)n3)cnc21 [Example I-114] | 100 | 100 | – | 83 | – |
| 3.88 | – | – | N#Cc1ccc(/C=N/NC(=O)c2cc(-c3ccc(OC(F)(F)F)cc3)cc(NC(=O)C3CC3)n2)cc1 [Example I-252, N-(6-{[(2E)-2-(4-Cyanobenzylidene)hydrazino]carbonyl}-4-[4-(trifluoromethoxy)phenyl]pyridin-2-yl)cyclopropanecarboxamide] | – | – | – | – | pest or weed control at 500 g/ha (Phaedon cochleariae; [8]): 100%; LOGP_NEUTRAL [1, 5]: 3.83; chromatographic logP [1, 6]: 3.88; chromatographic logP [1, 7]: 3.83; pest or weed control at 100 g/ha (Spodoptera frugiperda; application rate 100 g/ha): 83%; pest or weed control at 500 g/ha (Spodoptera frugiperda; application rate 500 g/ha): 100% |
